From PubChem BioAssay AID1963863 (Molecular Pharmacology Branch, DTP, NCI, 2024)

Test system: 931267-113-T-J1-PDC KRAS spheroid with HUVEC/MSC, viability
Assay: Anticancer human tumor 931267-113-T-J1-PDC patient-derived colon adenocarcinoma cell line growth inhibition [KRAS2]
Settings: for IC50: curve of first compound; for viability, T/C: stronger effect = lower value
How it was run: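 KRAS-mutant tumor cells were grown as spheroids with HUVEC endothelial cells and human MSCs as stroma. Targeted agents were tested alone and with KRAS pathway inhibitors. Doses started at or near clinical Cmax, or 10 microM, descending half-log.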

[1] = second compound 0.1 µM, first compound 0.0316 µM
[2] = second compound 0.1 µM, first compound 0.1 µM
[3] = second compound 0.1 µM, first compound 0.316 µM
[4] = second compound 0.1 µM, first compound 1 µM
[5] = second compound 0.1 µM, first compound 3.16 µM
[6] = second compound 0.1 µM, first compound 10 µM
[7] = second compound 0.316 µM, first compound 0.0316 µM
[8] = second compound 0.316 µM, first compound 0.1 µM
[9] = second compound 0.316 µM, first compound 0.316 µM
[10] = second compound 0.316 µM, first compound 1 µM
[11] = second compound 0.316 µM, first compound 3.16 µM
[12] = second compound 0.316 µM, first compound 10 µM
[13] = second compound 1 µM, first compound 0.0316 µM
[14] = second compound 1 µM, first compound 0.1 µM
[15] = second compound 1 µM, first compound 0.316 µM
[16] = second compound 1 µM, first compound 1 µM
[17] = second compound 1 µM, first compound 3.16 µM
[18] = second compound 1 µM, first compound 10 µM
[19] = second compound 3.16 µM, first compound 0.0316 µM
[20] = second compound 3.16 µM, first compound 0.1 µM
[21] = second compound 3.16 µM, first compound 0.316 µM
[22] = second compound 3.16 µM, first compound 1 µM
[23] = second compound 3.16 µM, first compound 3.16 µM
[24] = second compound 3.16 µM, first compound 10 µM
[25] = second compound 10 µM, first compound 0.0316 µM
[26] = second compound 10 µM, first compound 0.1 µM
[27] = second compound 10 µM, first compound 0.316 µM
[28] = second compound 10 µM, first compound 1 µM
[29] = second compound 10 µM, first compound 3.16 µM
[30] = second compound 10 µM, first compound 10 µM
[31] = second compound 0.1 µM, first compound 0.000316 µM
[32] = second compound 0.1 µM, first compound 0.001 µM
[33] = second compound 0.1 µM, first compound 0.00316 µM
[34] = second compound 0.1 µM, first compound 0.01 µM
[35] = second compound 0.316 µM, first compound 0.000316 µM
[36] = second compound 0.316 µM, first compound 0.001 µM
[37] = second compound 0.316 µM, first compound 0.00316 µM
[38] = second compound 0.316 µM, first compound 0.01 µM
[39] = second compound 1 µM, first compound 0.000316 µM
[40] = second compound 1 µM, first compound 0.001 µM
[41] = second compound 1 µM, first compound 0.00316 µM
[42] = second compound 1 µM, first compound 0.01 µM
[43] = second compound 3.16 µM, first compound 0.000316 µM
[44] = second compound 3.16 µM, first compound 0.001 µM
[45] = second compound 3.16 µM, first compound 0.00316 µM
[46] = second compound 3.16 µM, first compound 0.01 µM
[47] = second compound 10 µM, first compound 0.000316 µM
[48] = second compound 10 µM, first compound 0.001 µM
[49] = second compound 10 µM, first compound 0.00316 µM
[50] = second compound 10 µM, first compound 0.01 µM
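Note: compound exposure lasted 7 days before the readout.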
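Throughout, for viability, T/C: 100% = DMSO vehicle control viability.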

SMILES: CC(C)NCC(C(=O)N1CCN(c2ncnc3c2C(C)CC3O)CC1)c1ccc(Cl)cc1 (stereo not given) + COc1cc2nc(C)nc(NC(C)c3cc(N)cc(C(F)(F)F)c3)c2cc1OC1CCOC1
- IC50 (second compound 0.1 µM): > 10000 nM
- IC50 (second compound 0.316 µM): 5270 nM
- IC50 (second compound 1 µM): 4360 nM
- IC50 (second compound 3.16 µM): 1620 nM
- IC50 (second compound 10 µM): < 31.6 nM
- viability, T/C [1]: 87.4%
- viability, T/C [2]: 105%
- viability, T/C [3]: 104%
- viability, T/C [4]: 77.2%
- viability, T/C [5]: 58.3%
- viability, T/C [6]: 59.9%
- viability, T/C [7]: 106%
- viability, T/C [8]: 91.6%
- viability, T/C [9]: 83.3%
- viability, T/C [10]: 76.2%
- viability, T/C [11]: 56%
- viability, T/C [12]: 40.4%
- viability, T/C [13]: 88%
- viability, T/C [14]: 76.9%
- viability, T/C [15]: 72.7%
- viability, T/C [16]: 70.4%
- viability, T/C [17]: 54%
- viability, T/C [18]: 37.9%
- viability, T/C [19]: 78.5%
- viability, T/C [20]: 76.7%
- viability, T/C [21]: 67.2%
- viability, T/C [22]: 54.6%
- viability, T/C [23]: 42.7%
- viability, T/C [24]: 20.6%
- viability, T/C [25]: 0.91%
- viability, T/C [26]: 1.02%
- viability, T/C [27]: 0.68%
- viability, T/C [28]: 0.76%
- viability, T/C [29]: 0.45%
- viability, T/C [30]: 0.48%

SMILES: CC(C)n1nc(-c2ccc3oc(N)nc3c2)c2c(N)ncnc21 + COc1cc2nc(C)nc(NC(C)c3cc(N)cc(C(F)(F)F)c3)c2cc1OC1CCOC1
- IC50 (second compound 0.1 µM): 9.26 nM
- IC50 (second compound 0.316 µM): 7.45 nM
- IC50 (second compound 1 µM): 9.33 nM
- IC50 (second compound 3.16 µM): 6.56 nM
- IC50 (second compound 10 µM): < 0.316 nM
- viability, T/C [31]: 109%
- viability, T/C [32]: 92.5%
- viability, T/C [33]: 69%
- viability, T/C [34]: 50.5%
- viability, T/C [1]: 31.1%
- viability, T/C [2]: 24.9%
- viability, T/C [35]: 108%
- viability, T/C [36]: 91.7%
- viability, T/C [37]: 77.3%
- viability, T/C [38]: 39.1%
- viability, T/C [7]: 28.1%
- viability, T/C [8]: 24.2%
- viability, T/C [39]: 84.5%
- viability, T/C [40]: 101%
- viability, T/C [41]: 65.9%
- viability, T/C [42]: 51.7%
- viability, T/C [13]: 30.9%
- viability, T/C [14]: 23.9%
- viability, T/C [43]: 79%
- viability, T/C [44]: 75.8%
- viability, T/C [45]: 63.7%
- viability, T/C [46]: 41.9%
- viability, T/C [19]: 28.6%
- viability, T/C [20]: 23.6%
- viability, T/C [47]: 1.37%
- viability, T/C [48]: 1.1%
- viability, T/C [49]: 6.43%
- viability, T/C [50]: 3.9%
- viability, T/C [25]: 2.74%
- viability, T/C [26]: 1.79%

SMILES: CC1(C)CCC(CN2CCN(c3ccc(C(=O)NS(=O)(=O)c4ccc(NCC5CCOCC5)c([N+](=O)[O-])c4)c(Oc4cnc5[nH]ccc5c4)c3)CC2)=C(c2ccc(Cl)cc2)C1 + COc1cc2nc(C)nc(NC(C)c3cc(N)cc(C(F)(F)F)c3)c2cc1OC1CCOC1
- IC50 (second compound 0.1 µM): 2100 nM
- IC50 (second compound 0.316 µM): 1950 nM
- IC50 (second compound 1 µM): 1820 nM
- IC50 (second compound 3.16 µM): 1650 nM
- IC50 (second compound 10 µM): < 31.6 nM
- viability, T/C [1]: 89%
- viability, T/C [2]: 88.1%
- viability, T/C [3]: 90.1%
- viability, T/C [4]: 95.8%
- viability, T/C [5]: 27.7%
- viability, T/C [6]: 8.52%
- viability, T/C [7]: 86.2%
- viability, T/C [8]: 90.3%
- viability, T/C [9]: 84%
- viability, T/C [10]: 83%
- viability, T/C [11]: 26.3%
- viability, T/C [12]: 5.92%
- viability, T/C [13]: 76.5%
- viability, T/C [14]: 93.4%
- viability, T/C [15]: 76.1%
- viability, T/C [16]: 84.9%
- viability, T/C [17]: 19.6%
- viability, T/C [18]: 2.71%
- viability, T/C [19]: 61.9%
- viability, T/C [20]: 86.5%
- viability, T/C [21]: 60.2%
- viability, T/C [22]: 69.8%
- viability, T/C [23]: 24.3%
- viability, T/C [24]: 4.36%
- viability, T/C [25]: 0.9%
- viability, T/C [26]: 2.22%
- viability, T/C [27]: 0.8%
- viability, T/C [28]: 1.14%
- viability, T/C [29]: 2.02%
- viability, T/C [30]: 0.84%

SMILES: Cn1ncnc1[C@H]1c2n[nH]c(=O)c3cc(F)cc(c23)N[C@@H]1c1ccc(F)cc1 + COc1cc2nc(C)nc(NC(C)c3cc(N)cc(C(F)(F)F)c3)c2cc1OC1CCOC1
- IC50 (second compound 0.1 µM): > 100 nM
- IC50 (second compound 0.316 µM): > 100 nM
- IC50 (second compound 1 µM): > 100 nM
- IC50 (second compound 3.16 µM): > 100 nM
- IC50 (second compound 10 µM): < 0.316 nM
- viability, T/C [31]: 103%
- viability, T/C [32]: 88.5%
- viability, T/C [33]: 86.6%
- viability, T/C [34]: 107%
- viability, T/C [1]: 88.5%
- viability, T/C [2]: 74.4%
- viability, T/C [35]: 83.9%
- viability, T/C [36]: 108%
- viability, T/C [37]: 83.6%
- viability, T/C [38]: 96.3%
- viability, T/C [7]: 92.4%
- viability, T/C [8]: 77.9%
- viability, T/C [39]: 108%
- viability, T/C [40]: 99.8%
- viability, T/C [41]: 79.7%
- viability, T/C [42]: 88.3%
- viability, T/C [13]: 83.4%
- viability, T/C [14]: 95.4%
- viability, T/C [43]: 69.5%
- viability, T/C [44]: 87%
- viability, T/C [45]: 61.6%
- viability, T/C [46]: 67.6%
- viability, T/C [19]: 63.5%
- viability, T/C [20]: 52.4%
- viability, T/C [47]: 0.8%
- viability, T/C [48]: 0.47%
- viability, T/C [49]: 0.63%
- viability, T/C [50]: 1.27%
- viability, T/C [25]: 0.75%
- viability, T/C [26]: 1.25%
